Source: patent US12187758B2 (ROME Therapeutics, Inc., priority 2022, dated 2025)
pIC50: −log10 of the molar value.

Key:
Assay type in all cases: cell-based
THP1-Dual KO-TREX1 cells = assay: THP1 TREX1 KO inhibition assay (type 1 interferon response); conditions: Homo sapiens, 144 h, type 1 interferon (QUANTI-LUC), 1 μM 5-aza-2′-deoxycytidine, six days
Protocol: Exemplary compounds were tested for their ability to alter the type 1 interferon response in THP1 Dual TREX1 KG cells treated with 5-aza-2′-deoxycytidine. Assay procedures and results are described below.
THP1 Dual TREX1 KG cells were purchased from Invivogen. The THP1-Dual™ KO-TREX1 cells were cultured in RPMI 1640, 10% heat-inactivated fetal bovine serum, 25 mM HEPES, 10 μg/mL blasticidin, and 100 μg/mL zeocin. THP1-Dual™ KO-TREX1 cells were treated with a dose titration of a test compound alone or in the presence of 1 μM 5-aza-2′-deoxycytidine (Sigma-Aldrich, cat #189825). Type 1 Interferon and cell viability were assessed after six days of treatment.
Stock solution of the test compound was prepared in DMSO followed by a three-fold dilution in DMSO. Additional 50× dilution was prepared in cell culture media for each dilution. 10 μL of diluted test compound was then added to a 96-well plate.
THP1-Dual™ KO-TREX1 cells were treated with either 1×PBS or 1 μM 5-aza-2′-deoxycytidine. […] of the THP1-Dual™ KO-TREX1 cells from either treatment were added to each well of the 96-well plate containing the test compound titration at 50,000 cells/well. Cells were incubated at 37° C., 5% CO2 in a humidified incubator for six days. Cells treated with 1 μM 5-aza-2′-deoxycytidine were added at the same density as above and incubated at 37° C., 5% CO2 in a humidified incubator for six days. On day six, 25 μL of cell supernatant was transferred to a 96-well white-walled plate, followed by addition to each well of 50 μL of QUANTI-LUC solution containing stabilizer. Luminescence was detected on a plate reader according to the manufacturer's instructions.
The remaining cells were assessed for cell viability by adding 25 μL of CellTiter-Glo (Promega, G9683) solution to each well, and being placed on a shaker for 10 minutes at room temperature. Luminescence was detected on a plate reader, according to the manufacturer's instructions.
In the tables “A” represents values≤0.050 μM; “B” represents values from >0.050 μM to ≤0.100 μM; “C” represents values from >0.100 μM to ≤0.250 μM; “D” represents values from >0.250 μM to ≤1 μM; “E” represents values>1 μM; and “NT”=not tested: […]

[1] = Mitochondria toxicity assay with PC3 cells, in-cell ELISA COX-1; conditions: 5 days treatment
In short: (§1)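 This in-cell ELISA was run on fixed, permeabilized PC3 cells after 5-day exposure to titrated compound, with cytotoxicity measured on a duplicate plate. Results are reported as categories A (<1.0 μM) to E (>100.0 μM).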

[2] = tested on: SDH-A (succinate dehydrogenase-A); assay: Mitochondria toxicity assay with PC3 cells, in-cell ELISA SDH-A; conditions: 5 days treatment
In short: as §1

PC3 cells = assay: Mitochondria toxicity assay with PC3 cells, cytotoxicity (Cell Titer Glo); conditions: Homo sapiens, PC-3, 120 h, 5 days treatment
In short: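 Cytotoxicity reported in μM bins, A <1.0 through E >100.0. Measured via Cell Titer Glo luminescence (30 min, room temperature) after 5-day dose-titration treatment of PC3 cells, grown in F-12K/10% FBS, at 37° C, 5% CO2.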

Row | pIC50 (THP1-Dual KO-TREX1 cells) | SMILES | pIC50 [1] | pIC50 [2] | pIC50 (PC3 cells)
1 | < 6.00 | C=C[C@]1(CO)O[C@@H](n2cnc3c(=O)[nH]c(N)nc32)[C@@H](F)[C@@H]1O [Compound 63, 2-amino-9-[(2R,3S,4R,5R)-5-ethenyl-3-fluoro-4-hydroxy-5-(hydroxymethyl)oxolan-2-yl]-1H-purin-6-one] | 4.30 to 5.00 | 4.30 to 5.00 | 4.30 to 5.00
2 | < 6.00 | CC[C@]1(CO)O[C@@H](n2cnc3c(N)nc(F)nc32)C[C@@H]1O [Compound 64, (2R,3S,5R)-5-(6-amino-2-fluoro-9H-purin-9-yl)-2-ethyl-2-(hydroxymethyl)tetrahydrofuran-3-ol] | > 6.00 | > 6.00 | > 6.00
3 | 6.00 to 6.60 | Nc1nc(=O)n([C@H]2C[C@H](O)[C@](CO)(C(F)F)O2)cc1F [Compound 65, 4-amino-1-[(2R,4S,5R)-5-(difluoromethyl)-4-hydroxy-5-(hydroxymethyl)oxolan-2-yl]-5-fluoropyrimidin-2-one] | < 4.00 | < 4.00 | < 4.00
4 | < 6.00 | Nc1nc(=O)n([C@H]2C[C@H](O)[C@](CO)(C(F)(F)F)O2)cc1F [Compound 66, 4-amino-5-fluoro-1-((2R,4S,5R)-4-hydroxy-5-(hydroxymethyl)-5-(trifluoromethyl)tetrahydrofuran-2-yl)pyrimidin-2(1H)-one] | < 4.00 | < 4.00 | < 4.00
5 | < 6.00 | CC[C@]1(CO)O[C@@H](n2cnc3c(=O)[nH]c(N)nc32)[C@@H](F)[C@@H]1O [Compound 68, 2-amino-9-((2R,3S,4R,5R)-5-ethyl-3-fluoro-4-hydroxy-5-(hydroxymethyl)tetrahydrofuran-2-yl)-1,9-dihydro-6H-purin-6-one] | 4.30 to 5.00 | 4.30 to 5.00 | 4.30 to 5.00
6 | < 6.00 | C=C[C@]1(CO)O[C@@H](n2cnc3c(=O)[nH]c(N)nc32)C[C@@H]1O [Compound 69] | 5.00 to 6.00 | 5.00 to 6.00 | 5.00 to 6.00
7 | < 6.00 | Nc1nc2c(ncn2[C@@H]2O[C@@](CO)(CCl)[C@@H](O)[C@@H]2F)c(=O)[nH]1 [Compound 70, 2-amino-9-((2R,3S,4R,5R)-5-(chloromethyl)-3-fluoro-4-hydroxy-5-(hydroxymethyl)-tetrahydrofuran-2-yl)-1,9-dihydro-6H-purin-6-one] | 4.30 to 5.00 | 4.30 to 5.00 | 4.30 to 5.00
8 | < 6.00 | C=C[C@]1(CO)O[C@@H](n2cc(F)c(N)nc2=O)C[C@@H]1O [Compound 74, 4-amino-5-fluoro-1-((2R,4S,5R)-4-hydroxy-5-(hydroxymethyl)-5-vinyltetrahydrofuran-2-yl)pyrimidin-2(1H)-one] | < 4.00 | < 4.00 | < 4.00
9 | < 6.00 | C=C[C@]1(CO)O[C@@H](n2cc(F)c(N)nc2=O)[C@@H](O)[C@@H]1O [Compound 75, 4-amino-1-((2R,3S,4S,5R)-3,4-dihydroxy-5-(hydroxymethyl)-5-vinyltetrahydrofuran-2-yl)-5-fluoropyrimidin-2(1H)-one] | < 4.00 | < 4.00 | < 4.00
10 | < 6.00 | C=C[C@]1(CO)O[C@@H](n2cc(F)c(N)nc2=O)[C@@H](F)[C@@H]1O [Compound 76, 4-amino-1-[(2R,3S,4R,5R)-5-ethenyl-3-fluoro-4-hydroxy-5-(hydroxymethyl)oxolan-2-yl]-5-fluoropyrimidin-2-one] | 5.00 to 6.00 | 5.00 to 6.00 | < 4.00
11 | < 6.00 | CC[C@]1(CO)O[C@@H](n2cc(F)c(N)nc2=O)[C@@H](O)[C@@H]1O [Compound 78, 4-amino-1-((2R,3S,4S,5R)-5-ethyl-3,4-dihydroxy-5-(hydroxymethyl)tetrahydrofuran-2-yl)-5-fluoropyrimidin-2(1H)-one] | < 4.00 | < 4.00 | < 4.00
12 | < 6.00 | C=C[C@]1(CO)O[C@@H](n2cnc3c(N)nc(F)nc32)[C@@H](F)[C@@H]1O [Compound 80, (2R,3R,4S,5R)-5-(6-amino-2-fluoropurin-9-yl)-2-ethenyl-4-fluoro-2-(hydroxymethyl)oxolan-3-ol] | 4.00 to 4.30 | < 4.00 | < 4.00
13 | < 6.00 | CC[C@]1(CO)O[C@@H](n2cnc3c(N)nc(F)nc32)[C@@H](F)[C@@H]1O [Compound 81, (2R,3R,4S,5R)-5-(6-amino-2-fluoropurin-9-yl)-2-ethyl-4-fluoro-2-(hydroxymethyl)oxolan-3-ol] | < 4.00 | < 4.00 | < 4.00
14 | < 6.00 | CC[C@]1(CO)O[C@@H](n2cc(F)c(N)nc2=O)C[C@@H]1O [Compound 82, 4-amino-1-((2R,4S,5R)-5-ethyl-4-hydroxy-5-(hydroxymethyl)-tetrahydrofuran-2-yl)-5-fluoropyrimidin-2(1H)-one] | < 4.00 | < 4.00 | < 4.00
15 | < 6.00 | [N-]=[N+]=N[C@]1(CO)O[C@@H](c2ccc3c(N)ncnn23)C[C@@H]1O [Compound 92, (2R,3S,5R)-5-(4-aminopyrrolo[2,1-f][1,2,4]triazin-7-yl)-2-azido-2-(hydroxymethyl) tetrahydrofuran-3-ol] | > 6.00 | 5.00 to 6.00 | 5.00 to 6.00
16 | 6.00 to 6.60 | C[C@]1(CO)O[C@@H](n2ccc(N)nc2=O)C[C@@H]1O [Compound 106, 4-amino-1-((2R,4S,5R)-4-hydroxy-5-(hydroxymethyl)-5-methyltetrahydrofuran-2-yl)pyrimidin-2(1H)-one] | > 6.00 | > 6.00 | > 6.00
17 | < 6.00 | C#C[C@]1(CO)O[C@@H](n2cc(F)c(N)nc2=O)C[C@@H]1O [Compound 107, 4-amino-1-((2R,4S,5R)-5-ethynyl-4-hydroxy-5-(hydroxymethyl)tetrahydro-furan-2-yl)-5-fluoropyrimidin-2(1H)-one] | < 4.00 | < 4.00 | < 4.00
18 | 6.00 to 6.60 | [N-]=[N+]=N[C@]1(CO)O[C@@H](n2cnc3c(=O)[nH]c(N)nc32)C[C@@H]1O [Compound 108, 2-amino-9-((2R,4S,5R)-5-azido-4-hydroxy-5-(hydroxymethyl)tetrahydro-furan-2-yl)-1,9-dihydro-6H-purin-6-one] | 5.00 to 6.00 | 4.30 to 5.00 | 5.00 to 6.00
19 | < 6.00 | C=C[C@]1(CO)O[C@@H](n2cnc3c(N)nc(F)nc32)C[C@@H]1O [Compound 109, (2R,3S,5R)-5-(6-amino-2-fluoro-9H-purin-9-yl)-2-(hydroxymethyl)-2-vinyltetrahydrofuran-3-ol] | 5.00 to 6.00 | 5.00 to 6.00 | 5.00 to 6.00
20 | < 6.00 | Nc1ccn([C@H]2C[C@H](O)[C@](CO)(C(F)F)O2)c(=O)n1 [Compound 110, 4-amino-1-((2R,4S,5R)-5-(difluoromethyl)-4-hydroxy-5-(hydroxymethyl)-tetrahydrofuran-2-yl)pyrimidin-2(1H)-one] | < 4.00 | < 4.00 | < 4.00
21 | 7.00 to 7.30 | Nc1ccn([C@@H]2O[C@H](CO)[C@@H](O)C2(F)F)c(=O)n1 [Compound 111, 4-amino-1-((2R,4R,5R)-3,3-difluoro-4-hydroxy-5-(hydroxymethyl)tetrahydro-furan-2-yl)pyrimidin-2(1H)-one] | > 6.00 | > 6.00 | > 6.00
22 | < 6.00 | C#C[C@]1(CO)O[C@@H](n2cc(F)c(N)nc2=O)[C@@H](F)[C@@H]1O [Compound 112, 4-amino-1-((2R,3S,4R,5R)-5-ethynyl-3-fluoro-4-hydroxy-5-(hydroxymethyl)tetrahydrofuran-2-yl)-5-fluoropyrimidin-2(1H)-one] | > 6.00 | > 6.00 | < 4.00
